# Experimental data from ChEMBL document CHEMBL4414546, “Identification of Narciclasine as an in Vitro Anti-Inflammatory Component of Cyrtanthus contractus by Correlation-Based Metabolomics” (2019).
# Calls of active or inactive are those of the source. The calls are words filed in the database; no cut-off is given here.
# Key:
# HUVEC [1] = assay: Antiinflammatory activity in TNF-alpha-induced HUVEC assessed as fold change in IkappaBalpha expression at 7.2 nM preincubated for 30 mins followed by addition and measured after 30 mins by immunoblotting analysis (reference value: 0.50); type: functional, Homo sapiens
# HUVEC [2] = assay: Effect on TNF-alpha-induced NFkappaB nuclear translocation in HUVEC at 7.2 nM preincubated for 30 mins followed by TNF-alpha stimulation and measured after 30 mins by fluorescence microscopic analysis; type: cell-based; conditions: Homo sapiens
# HUVEC [3] = assay: Antiinflammatory activity in TNF-alpha-induced HUVEC assessed as fold change in COX2 expression at 7.2 nM preincubated for 30 mins followed by addition and measured after 30 mins by immunoblotting analysis (reference value: 0.50); type: functional, Homo sapiens
# HUVEC [4] = assay: Antiinflammatory activity in HUVEC assessed as reduction in TNF-alpha-induced E-selectin expression at 7.2 nM preincubated for 30 mins followed by TNF-alpha stimulation and measured after 30 mins by immunoblotting analysis; type: functional, cell-based; conditions: Homo sapiens
# HUVEC [5] = assay: Antiinflammatory activity in HUVEC assessed as reduction in TNF-alpha-induced E-selectin cell surface expression at 7.2 nM preincubated for 30 mins followed by TNF-alpha addition and measured after 4 hrs by ELISA; type: functional, cell-based; conditions: Homo sapiens
# HUVEC [6] = assay: Antiinflammatory activity in HUVEC assessed as reduction in TNF-alpha-induced ICAM1 cell surface expression at 7.2 nM preincubated for 30 mins followed by TNF-alpha stimulation and measured after 24 hrs by flow cytometry; type: functional, cell-based; conditions: Homo sapiens
compound,measurement,setting,value
O=C1N[C@@H]2C(=C[C@H](O)[C@@H](O)[C@H]2O)c2cc3c(c(O)c21)OCO3 [NARCICLASINE],fold change (FC),HUVEC [1],0.31
same,Activity,HUVEC [2],inactive
same,fold change (FC),HUVEC [3],0.8
same,inhibition,HUVEC [4],Active
same,inhibition,HUVEC [5],Active
same,inhibition,HUVEC [6],Active
